The test system of test [1] is progerin (LMNA G608G) in HGPS fibroblasts. Nature of the test: Immunofluorescence localization of progerin after FTI-277 treatment. The test is classed as cell-based, human. The source says:
Indirect immunofluorescence and Western blot: Primary cultures of dermal fibroblasts were processed for indirect immunofluorescence as described previously (Paradisi et al, 2005). Rabbit antibodies directed against A-type and B-type lamins were described previously (Chaudhary et al, 1993; Cance et al, 1992). Goat anti-lamin B1 M-20 and anti-prelamin A C-20 (Santa Cruz), monoclonal antibodies anti-emerin 4G5 (Novocastra), anti-nucleoporin Nup153 clone 414 (Covance), anti-lamin A Jo14 (Serotec), and anti-Ki-67 (BD Bioscience) were purchased. Secondary antibodies were affinity purified Alexa Fluor 488 goat or donkey IgG antibodies (Molecular Probes) and Cy3-conjugated IgG antibodies (Jackson ImmunoResearch laboratories). All samples were counterstained with DAPI (Sigma-Aldrich). When cells were treated daily for 3 days with farnesyltransferase inhibitor FTI-277 (Calbiochem), the culture medium was supplemented with 20 μM FTI-277 or DMSO prior to immunofluorescence analysis as described previously (Adjei et al, 2000). Images were processed using Adobe Photoshop. For Western blot analysis, total cellular protein extracts were isolated from dermal fibroblast cultures at different population doublings (25 to 55) and processed as described previously (Paradisi et al, 2005).
To determine the role of farnesylation in HGPS nuclear abnormalities, control and HGPS fibroblast cultures (PPDs 35-38) were treated daily with 20 μM farnesyltransferase inhibitor FTI-277 (Adjei et al, 2000). After 48 h treatment, the percentage of HGPS nuclei with abnormal shapes decreased from 31% to 8% (FIG. 6A). The intranuclear repartition of prelamin A and the localization of LMNA G608G differed greatly between treated and un-treated cells; prelamin A was not detectable in control or HGPS cells (FIG. 6B). […] Progerin was also detected in nuclear foci similarly to wild-type prelamin A (FIG. 6B).

The next test has as its system HGPS fibroblast cultures. Nature of the test: Scoring of abnormally shaped nuclei in fibroblast cultures treated with farnesyltransferase inhibitor. As to conditions: 20 μM FTI-277 daily, after 48 h treatment, HGPS fibroblasts PPDs 35-38; decreased from 31%. The format is cell-based, human. The source says:
Indirect immunofluorescence and Western blot: Primary cultures of dermal fibroblasts were processed for indirect immunofluorescence as described previously (Paradisi et al, 2005). Rabbit antibodies directed against A-type and B-type lamins were described previously (Chaudhary et al, 1993; Cance et al, 1992). Goat anti-lamin B1 M-20 and anti-prelamin A C-20 (Santa Cruz), monoclonal antibodies anti-emerin 4G5 (Novocastra), anti-nucleoporin Nup153 clone 414 (Covance), anti-lamin A Jo14 (Serotec), and anti-Ki-67 (BD Bioscience) were purchased. Secondary antibodies were affinity purified Alexa Fluor 488 goat or donkey IgG antibodies (Molecular Probes) and Cy3-conjugated IgG antibodies (Jackson ImmunoResearch laboratories). All samples were counterstained with DAPI (Sigma-Aldrich). […]
Quantification: The percentages of ki-67 positive cells, of misshapen or blebbing nuclei, and senescence β-gal positive cells were determined by direct count of 300 cells per coverslip in triplicate, and from three independent experiments. […]
To determine the role of farnesylation in HGPS nuclear abnormalities, control and HGPS fibroblast cultures (PPDs 35-38) were treated daily with 20 μM farnesyltransferase inhibitor FTI-277 (Adjei et al, 2000). […] Progerin was also detected in nuclear foci similarly to wild-type prelamin A (FIG. 6B).

Structures are written as SMILES.

These results are taken from US20080292617A1, “ANTIBODY AGAINST A PEPTIDE DERIVED FROM HUMAN MUTANT LAMIN A PROTEIN AND USES THEREOF” (THE TRUSTEES OF COLUMBIA UNIVERSITY IN THE CITY OF NEW YORK, priority 2005, published 2008).

On to `COC(=O)[C@H](CCSC)NC(=O)c1ccc(NC[C@@H](N)CS)cc1-c1ccccc1` [FTI-277], for which the “progerin localization (anti-LMNA G608G staining)” value in test [1] (20 μM FTI-277, 76 h after treatment) was “progerin was totally depleted from the NE in most nuclei”; in test [1] (20 μM FTI-277, after 24 h treatment), “progerin was still incorporated into the nuclear lamina”; in test [1] (20 μM FTI-277, after 48 h treatment) it was “progerin was progressively depleted from the NE and lamina”. The “percentage of HGPS nuclei with abnormal shapes” value in the test on HGPS fibroblast cultures worked out at 8%.
